Key:
LolT [1] = molecular target: T1, LolT (Penicillium expansum, UniProt A0A0A2J6G6); type: biochemical; conditions: 10 μM LolT, 4 mM diamino acid, pH 7.5 in D2O, 28° C.
Method: FIGS. 16A-16D provides reaction schematics and data of hydrogen-deuterium exchange assay of LolT with diamino acid substrate analogues. All reactions were monitored by 1H-NMR spectra and boiled enzymes were used as control. For mass data analysis, the reaction mixtures were derivatized with Fmoc-Cl.
H/D exchange assay. […] Reaction was incubated at 28° C. and monitored by NMR and LC-MS (reaction mixture was derivatized with Fmoc-Cl as described above before MS analysis). Fully deuterated products were further derivatized with Marfey's reagent (TCL) for chiral analysis. Briefly, an 80 μL reaction mixture was mixed with 20 μL acetone solution of Marfey's reagent (50 mM) and 20 μL NaHCO3 solution (1 M). The resulting mixture was incubated in a 42° C. water bath for 30 min. Next, 10 μL HCl (2M) was added to the derivatization mixture to quench the reaction. The resultant solution was analyzed on a Shimadzu LC-40 HPLC equipped with a Cosmosil, C18 AR-II analytical column. Derivatized amino acids were eluted with a linear gradient from 10% acetonitrile and to 40% acetonitrile over 20 min with a flow rate at 1 mL/min. All HPLC solvents (water and acetonitrile) were supplemented with 0.1% (v/v) formic acid.

LolD = molecular target: T2, LolD (Epichloe uncinata, UniProt Q5MNI5); assay: Enzymatic assay for LolD (conversion monitored by HPLC/LC-MS after Fmoc-Cl derivatization); type: biochemical, E. uncinate; conditions: phosphate buffer pH 7.5, 28° C.
T2 construct: Bacterial expression plasmids were ordered from Twist Biosciences; made in house; host or cells: E. coli BL21(DE3)
T2 sequence (Q5MNI5 1-420): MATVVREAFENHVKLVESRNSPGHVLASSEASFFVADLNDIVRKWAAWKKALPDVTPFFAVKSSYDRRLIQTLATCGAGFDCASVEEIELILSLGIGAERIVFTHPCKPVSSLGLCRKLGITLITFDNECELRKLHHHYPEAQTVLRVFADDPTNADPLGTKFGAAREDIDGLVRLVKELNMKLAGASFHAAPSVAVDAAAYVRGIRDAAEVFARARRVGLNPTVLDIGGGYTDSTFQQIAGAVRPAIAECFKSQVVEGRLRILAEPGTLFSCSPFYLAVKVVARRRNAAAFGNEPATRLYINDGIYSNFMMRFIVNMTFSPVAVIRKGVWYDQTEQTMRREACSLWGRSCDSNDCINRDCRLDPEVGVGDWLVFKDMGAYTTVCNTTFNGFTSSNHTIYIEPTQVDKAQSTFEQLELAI
Text: FIGS. 4A-4D provides schematics and data identifying LolT as a PLP-dependent Mannich cyclase. FIG. 4A provides a schematic depicting an elucidated pathway for the pyrrolizidine formation of loline. FIG. 4B provides HPLC analysis showing the reactions catalysed by LolT and LolD. All reactions were repeated for at least 3 times. Products were derivatized with Fmoc-Cl and analyzed by HPLC using a C18 column (Phenomenex Kinetex, 1.7 μm, 2.0×100 mm) with a linear elution gradient of 2-98% MeCN—H2O solvent system supplemented with 0.1% formic acid as additive. FIG. 4C provides DFT-calculated Mannich cyclization transition state for anti TS-1. FIG. 4D provides DFT-calculated Mannich cyclization transition state for syn TS-2.
FIGS. 7A-7B provides data of control experiments testing the function LolT and LolD using alternative substrates. FIG. 7A: Incubating LolD (10 μM) with 2 (1 mM) in phosphate buffer (pH 7.5) for 12 hrs at 28° C. FIG. 7B: Incubating LolT (1 μM) with decarboxylated 2 (1 mM) in phosphate buffer (pH 7.5) for 12 hrs at 28° C. All reactions were derivatized with Fmoc-Cl (50 mM) and analyzed by HPLC and LCMS. Decarboxylated 2 was prepared in situ by global deprotection of 12b, synthesis of 12b.
Enzymatic assays for LolT and LolD. […] The product was quantified based on the peak area of derivatized sample and compared with standard curve. […]

LolT [2] = molecular target: T1, LolT; assay: Steady-state kinetic analysis of LolT-catalyzed Mannich cyclization; type: biochemical, P. expansum; conditions: reaction forming the named product
Method: FIGS. 10A-10B provide data of steady-state kinetic study of LolT and LolD. […] The results from both Fmoc-Cl and OPA derivatization were shown for comparison.
FIG. 10B: Kinetic analysis of LolD-catalyzed nonoxidative decarboxylation. All reactions were performed in assay buffer: phosphate buffer (pH 7.5), 50 μM PLP, corresponding substrate at various concentrations. For 5-endo cyclization, LolT was added to a final concentration of 0.1 μM and the reaction was quenched after 1 min; while for 6-endo cyclization, LolT was added to a final concentration of 1 μM and the reaction was quenched after 1 min, and for 7-endo cyclization, LolT was added to a final concentration of 10 μM and the reaction was quenched after 5 min. For decarboxylation reaction, LolD was added to a final concentration of 1 μM and the reaction was quenched after 20 min. The derivatization method was described in the methods section. All assays were performed in triplicates at 28° C. and individual point was shown on the plot. Except for reaction forming 5, all data were fitted to the standard Michalis-Menton equation.
Enzymatic assays for LolT and LolD. A typical reaction mixture (˜50 μl) includes ˜1 mM amino acid substrate in the assay buffer (50 mM K2HPO4, 50 μM PLP, pH 7.5). […] The product was quantified based on the peak area of derivatized sample and compared with standard curve. […]

LolT [3] = molecular target: T1, LolT; assay: Two-component Mannich cyclization assay; type: biochemical, P. expansum; conditions: diamino acid plus aldehyde, KPi buffer
Method: Two-component Mannich cyclization assay. A typical reaction mixture at analytical scale (˜50 μL) includes 5 μM LolT, 5 mM diamino acid substrate, and 25 mM aldehyde substrates in 50 mM KPi buffer supplemented with 5% (v/v) DMSO. The reaction mixture was taken at different time points and derivatized with ortho-phthaldialdehyde (OPA) and 5-mercaptopentanoic acid before analysis on LC-MS. The pH value, reaction temperature, reaction time, and free PLP concentration (0.1%-10% mol) were optimized for selected reactions according to the analytic yield and diastereisomeric ratio (d.r.). Optimized reactions were scaled up to isolate the corresponding product for structural determination. To ease product isolation, the reaction mixtures were derivatized with Boc anhydride and isolated by reverse-phase chromatography. The isolated Boc-protected products were deprotected with TFA/CH2Cl2 and the isolation yields were calculated based on the Boc-protected form. To determine the enantiomeric excess (e.e.), isolated products were derivatized with Na-(5-fluoro-2,4-dinitrophenyl)-L-leucinamide and Na-(5-fluoro-2,4-dinitrophenyl)-D-leucinamide and separated on LC-MS. Briefly, 10 μL of amino acid product (10 mM in MeOH) was mixed with 10 μL of Na2CO3 (1 mM) and 10 μL of derivatizing reagent. […] The resulting mixture was analyzed by LC-MS.

T1 sequence (A0A0A2J6G6 entry or part of it): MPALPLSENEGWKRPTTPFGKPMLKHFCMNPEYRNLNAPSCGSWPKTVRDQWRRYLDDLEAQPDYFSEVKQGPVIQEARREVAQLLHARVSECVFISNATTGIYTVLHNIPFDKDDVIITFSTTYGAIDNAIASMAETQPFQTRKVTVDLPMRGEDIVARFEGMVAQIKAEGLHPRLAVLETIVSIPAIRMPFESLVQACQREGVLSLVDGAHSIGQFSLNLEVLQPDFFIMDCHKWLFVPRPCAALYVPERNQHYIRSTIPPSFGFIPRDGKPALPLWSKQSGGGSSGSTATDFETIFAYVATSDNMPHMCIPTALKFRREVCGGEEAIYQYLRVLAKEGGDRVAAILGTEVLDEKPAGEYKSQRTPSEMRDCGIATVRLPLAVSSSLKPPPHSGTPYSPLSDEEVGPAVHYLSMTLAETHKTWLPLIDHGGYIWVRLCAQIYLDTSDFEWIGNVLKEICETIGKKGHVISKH

Compound: NCC[C@@H](N)C(=O)O [D-Dab]
- Cα-H H/D exchange (carbanion formation) with LolT in D2O (in words) (LolT [1]): no H/D exchange occurred

Compound: NCC[C@H](N)C(=O)O [L-Dab, (S)-2,4-diaminobutanoic acid]
- Cα-H H/D exchange (carbanion formation) with LolT in D2O (in words) (LolT [1]): rapidly washed out

Compound: N[C@@]1(C(=O)O)CCN2CCC[C@@H]21 [compound 3, (1S,7aR)-1-aminohexahydro-1H-pyrrolizine-1-carboylic acid]
- conversion on incubation with LolD (in words) (LolD): quantitative conversion

Compound: N[C@@]1(C(=O)O)CCCN2CCC[C@@H]21 [compound 5, (8S,8aR)-8-aminooctahydroindolizine-8-carboxylic acid]
- decrease of catalytic efficiency in comparison with 5-endo-trig cyclization to make 3 (LolT [2]): ~12 fold

Compound: N[C@@]1(C(=O)O)CCCCN2CCC[C@@H]21 [compound 7, (9S,9aR)-9-aminooctahydro-1H-pyrrolo[1,2-a]azepine-9-carboxylic acid]
- decrease of catalytic efficiency in comparison with 5-endo-trig cyclization to make 3 (LolT [2]): ~1,000 fold

Compound: NCCCC[C@H](N)C(=O)O [lysine]
- Mannich cyclization as amino acid donor with aldehydes (in words) (LolT [3]): No Mannich cyclization reaction took place

— patent publication US20250027123A1, “Compositions, Systems, and Methods for Performing a Mannich Cyclization Reaction” (The Regents of the University of California, priority 2023, published 2025)
